# According to ChEMBL document CHEMBL1944623, “Synthesis, characterization and antiamoebic activity of some hydrazone and azole derivatives bearing pyridyl moiety as a promising heterocyclic scaffold” (Eur J Med Chem, 2012):
# pIC50: −log10 of the molar value.
# Test system: Entamoeba histolytica
# Experiment: Antiameobic activity against Entamoeba histolytica HM-1:IMSS after 72 hrs using trypan blue staining method
# Format: functional, organism-based
# Settings: not given
Compound,pIC50,Activity
O=C(N/N=C/c1ccccc1)c1ccncc1 [N'-BENZYLIDENE ISONICOTINOHYDRAZIDE],5.42,–
S=c1[nH]nc(-c2ccncc2)o1,6.25,Dose-dependent effect
O=C(N/N=C/c1cccc(Cl)c1)c1ccncc1 [N'-(3-CHLOROBENZYLIDENE)ISONICOTINOHYDRAZIDE],4.92,–
Sc1nnc(-c2ccncc2)n1-c1ccccc1,6.80,Dose-dependent effect
COc1ccc(/C=N/NC(=O)c2ccncc2)cc1,6.41,Dose-dependent effect
O=C(N/N=C/c1ccc([N+](=O)[O-])cc1)c1ccncc1 [N'-(4-NITROBENZYLIDENE)ISONICOTINOHYDRAZIDE],6.43,Dose-dependent effect
CC(C)c1ccc(/C=N/NC(=O)c2ccncc2)cc1,5.43,–
O=C(N/N=C/c1ccccc1O)c1ccncc1 [SALINAZID],5.38,–
CN(C)c1ccc(/C=N/NC(=O)c2ccncc2)cc1 [N'-(4-DIMETHYLAMINOBENZYLIDENE)ISONICOTINOHYDRAZIDE],5.26,–
Cc1ccc(/C=N/NC(=O)c2ccncc2)cc1 [N'-(4-METHYLBENZYLIDENE)ISONICOTINOHYDRAZIDE],6.89,Dose-dependent effect
c1ccc(Nc2nnc(-c3ccncc3)s2)cc1,5.35,–

# Test system: MCF7
# Experiment: Cytotoxicity against human MCF7 cells assessed as cell viability after 48 hrs by MTT assay
# Format: cell-based
# Settings: MCF7, 48 h
row,Compound,pIC50
1,S=c1[nH]nc(-c2ccncc2)o1,< 3.60
2,Sc1nnc(-c2ccncc2)n1-c1ccccc1,< 3.60
3,COc1ccc(/C=N/NC(=O)c2ccncc2)cc1,< 3.60
4,O=C(N/N=C/c1ccc([N+](=O)[O-])cc1)c1ccncc1 [N'-(4-NITROBENZYLIDENE)ISONICOTINOHYDRAZIDE],< 3.60
5,Cc1ccc(/C=N/NC(=O)c2ccncc2)cc1 [N'-(4-METHYLBENZYLIDENE)ISONICOTINOHYDRAZIDE],< 3.60
6,Cc1ncc([N+](=O)[O-])n1CCO [METRONIDAZOLE],< 3.60
